Reference: patent publication US20080112968A1, “NICOTINAMIDE COMPOSITIONS FOR TREATMENT OF SKIN DISEASES AND DISORDERS” (Dermena, priority 2006, published 2008)

Tests used:
[1] = Binding of pyridinium salts to sepharose immobilized heparin (spectrophotometric degree of binding); details: water solution incubated 5 minutes with sepharose immobilized heparin 25 mg/mL
Text: Spectrophotometric methodologies were applied to estimate a degree of binding (DB) of the investigated compounds with heparin. This method is based on the absorption measurements of water solution of the investigated compound before and after a contact with heparin. The concentration was adjusted such that the absorbance in the region near the absorption maximum was around 1. The absorption spectra was collected for these prepared solutions. The same solutions of the investigated pyridinium salts were also incubated for 5 minutes with sepharose immobilized heparin (Heparin Sepharose CL-6B, Amersham Biosciences AB, Sweden) added in amount of 25 mg/mL. The suspensions of immobilized heparin with the analyzed compounds were then placed into Eppendorf microtubes and centrifuged at 13000 g for 4 minutes. The resulting clear solution over the sediment was introduced into a cuvette, and the absorption spectrum was measured. The degree of binding was estimated based on comparison of integrated area under the absorption curve for the solutions incubated and non-contacted with heparin.
DB was calculated according to the equation (1):
where: DB=degree of binding,
IA=integrated area under absorption curve for sample without contact with immobilized heparin,
IAHEP=integrated area under absorption curve for sample incubated with immobilized heparin.

[2] = Solubility in water; format: physicochemical

Row | Degree of binding, [%] [1] | Compound | solubility [2]
1 | 20-45% | C[n+]1cccc(C(=O)NCO)c1 [Compound 4, 1-Methyl-N′-(hydroxymethyl)-nicotinamide] | –
2 | 20-45% | CC(=O)c1ccc[n+](C)c1 [Compound 5, 1-Methyl-3-acetylpyridine] | –
3 | 20-45% | CCC[n+]1cccc(C(N)=O)c1 [Compound 6, 1-Propylnicotinamide] | –
4 | <20% | C[n+]1cccc(C(=O)[O-])c1 [Compound 7, Trigonelline] | –
5 | <20% | NC(=O)c1cccnc1 [Compound 8, Nicotinamide] | –

The remaining lines, values behind:

Row | Compound | Degree of binding, [%] [1] | solubility [2]
6 | C[n+]1cccc(C(N)=O)c1 [Compound 1, 1-Methylnicotinamide] | >45% | > 600 mg/mL
7 | CNC(=O)c1ccc[n+](C)c1 [Compound 2, 1,N′-Dimethylnicotinamide] | 20-45% | –
8 | CCN(CC)C(=O)c1ccc[n+](C)c1 [Compound 3, 1-Methyl-N′,N′-diethylnicotin-amide] | 20-45% | –
